The values that follow come from the OligoGym collection.

The target in this data set is IRF4. The following applies: ASO.

Several values for one entry are separate records, joined by “and”; a condition that tells them apart may be missing. Identical values can stand only once. After the bases stand the sugars from the 5' end (letter, count) and the backbone: PS all phosphorothioate, else s phosphorothioate and o phosphodiester by linkage. Methylation of C is not given here. e = 2'-O-(2-methoxyethyl) (MOE); k = constrained ethyl (cEt); d = 2'-deoxy (DNA)

As to “TCTATAGTGTTCCAGG (sugars kkkdddddddddkeke, PS)”, the target mRNA inhibition amounted to 22% (MM.1R, 0.074 µM); 34% (MM.1R, 0.222 µM); 56% (MM.1R, 0.666 µM); 68% (MM.1R, 1 µM); 81% (MM.1R, 2 µM).

On to “AGGCACATCAATGTTT (sugars kkddddddddddkeke, PS)”, for which the target mRNA inhibition (MM.1R, 1 µM) was 16% and 14%.

Turning to CCTCAGACTGTGCTGC (sugars k3 d10 k3, PS), the target mRNA inhibition (SK-MEL-28, 4 µM) was 30%.

Take CCTGAGTATTTCATAG (sugars k3 d10 k3, PS): for the setting “SK-MEL-28, 4 µM”, the target mRNA inhibition was 42%.

For AGCTGAGCTGATCATC (sugars k3 d10 k3, PS), the target mRNA inhibition (SK-MEL-28, 4 µM) is 56%.

For the sequence ACATAAAGGACCCCGC (sugars k3 d10 k3, PS), under “SK-MEL-28, 4 µM”, the target mRNA inhibition was found to be 28%.

As to CATCGAACTCCTGAGT (sugars k3 d10 k3, PS), the target mRNA inhibition (SK-MEL-28, 4 µM) worked out at 31%.

Consider AGTCCTCAAATCTTCA (sugars k3 d10 k3, PS), for which, under “SK-MEL-28, 4 µM”, the target mRNA inhibition was determined as 54%.

In the case of ACTGGCATTGAGACGG (sugars k3 d10 k3, PS), the target mRNA inhibition (SK-MEL-28, 4 µM) is 72% and 79%.

As to ACTTATAGCACTCTCC (sugars k3 d10 k3, PS), the target mRNA inhibition (MM.1R, 1 µM) was determined as 1%.

Take TAAGGCACTACTTCCA (sugars k3 d10 k3, PS): the target mRNA inhibition (MM.1R, 1 µM) stood at 10%.

Consider AGCAAGAGCTTACTGT (sugars k3 d10 k3, PS), for which, for the setting “MM.1R, 1 µM”, the target mRNA inhibition is -6%.

With CAAGACATAAACCAAG (sugars k3 d10 k3, PS), where the note is “SK-MEL-28, 4 µM”, the target mRNA inhibition was found to be 51%.

Consider CCCTTCCCCGCGACTC (sugars k3 d10 k3, PS), for which the target mRNA inhibition (SK-MEL-28, 4 µM) amounted to 19%.

On to AGCCGAAGCATTTTAT (sugars k3 d10 k3, PS), for which, where the note is “SK-MEL-28, 4 µM”, the target mRNA inhibition was 44%.

Take CTACTGGGTACATGGC (sugars k3 d10 k3, PS): the target mRNA inhibition (SK-MEL-28, 4 µM) amounted to 84%.

As for TAGATTGTAGGACAGA (sugars k3 d10 k3, PS), under “SK-MEL-28, 4 µM”, the target mRNA inhibition came out at 28%.

As to GCATAGTGATGAGATA (sugars k3 d10 k3, PS), under “SK-MEL-28, 4 µM”, the target mRNA inhibition was determined as 59%.

For the sequence AAGTTCATGTAAAGTC (sugars k3 d10 k3, PS), the target mRNA inhibition (MM.1R, 1 µM) was 43% and 41%.

As to TGCTGCAAATCCCTCT (sugars k3 d10 k3, PS), the target mRNA inhibition (MM.1R, 1 µM) came out at 21%.

On to ACCTACTCCATCACTT (sugars k3 d10 k3, PS), for which, for the setting “SK-MEL-28, 4 µM”, the target mRNA inhibition was -3%.

As to TAGATCTGTGGTAATC (sugars k3 d10 k3, PS), the target mRNA inhibition (MM.1R, 1 µM) was 20% and 6%.

In the case of CAGAAGTACGAGCACA (sugars k3 d10 k3, PS), for the setting “SK-MEL-28, 4 µM”, the target mRNA inhibition stood at 47%.

As to TCTCTCCAGTTTGTTG (sugars k3 d10 k3, PS), the target mRNA inhibition (SK-MEL-28, 4 µM) was 14%.

Turning to ATCAGAAATCACGAGG (sugars k3 d10 k3, PS), the target mRNA inhibition was 2% (MM.1R, 0.0625 µM); -9% (MM.1R, 0.074 µM); -12% (MM.1R, 0.222 µM); 1% (MM.1R, 0.25 µM); -4% (MM.1R, 0.666 µM); 6% (MM.1R, 1 µM). For the same sequence, the target mRNA inhibition by setting is: (MM.1R, 2 µM) 9%; (MM.1R, 4 µM) 36%; (SK-MEL-28, 4 µM) 71%.

AGGAAGCACTGGCATC (sugars k3 d10 k3, PS): the target mRNA inhibition (SK-MEL-28, 4 µM) was found to be 57%.

Regarding GTAGTATGAGAAACGG (sugars k3 d10 k3, PS), the target mRNA inhibition (SK-MEL-28, 4 µM) was 83% and 80%.

For the sequence TCAACCTGGAAGGATG (sugars k3 d10 k3, PS), for the setting “SK-MEL-28, 4 µM”, the target mRNA inhibition amounted to 30%.

In the case of CAAACTATAATTGGCA (sugars k3 d10 k3, PS), the target mRNA inhibition (SK-MEL-28, 4 µM) is 53%.

On to “GAAGCATTTTATCATC (sugars kkkddddddddkekek, PS)”, for which the target mRNA inhibition (MM.1R, 1 µM) is -5%.

On to AGCTGCCACTGGTAAC (sugars k3 d10 k3, PS), for which, under “MM.1R, 1 µM”, the target mRNA inhibition is 0%.

On to GCCCGCAAAAGAAACG (sugars k3 d10 k3, PS), for which the target mRNA inhibition (MM.1R, 1 µM) was 2%.

Turning to GGCCTTAATGGTGATT (sugars k3 d10 k3, PS), under “MM.1R, 1 µM”, the target mRNA inhibition is -16%.

In the case of ATGTAAGTGATAGGTA (sugars k3 d10 k3, PS), the target mRNA inhibition (SK-MEL-28, 4 µM) is 70%.

In the case of “TTTATGTTAGCCAATT (sugars kkddddddddddkeke, PS)”, the target mRNA inhibition (MM.1R, 1 µM) is 11% and -5%.

In the case of TCACAAGCTGGGCCTT (sugars k3 d10 k3, PS), under “SK-MEL-28, 4 µM”, the target mRNA inhibition was found to be 30%.

Consider CACTGCCGTGATCTGA (sugars k3 d10 k3, PS), for which the target mRNA inhibition (MM.1R, 1 µM) turned out to be 9%.

CGTCATGGGACATTGG (sugars k3 d10 k3, PS): the target mRNA inhibition (SK-MEL-28, 4 µM) came out at 56%.

Take TTGGTTGGCTGGTCTT (sugars k3 d10 k3, PS): the target mRNA inhibition by setting is: (MM.1R, 0.0625 µM) 40%; (MM.1R, 0.25 µM) 58%; (MM.1R, 1 µM) 76% and 72%; (MM.1R, 4 µM) 89%.

For the sequence TCAACCAGTTCCTCAA (sugars k3 d10 k3, PS), where the note is “MM.1R, 1 µM”, the target mRNA inhibition was -23%.

For GGAGAAGTCCCGTGGA (sugars k3 d10 k3, PS), where the note is “SK-MEL-28, 4 µM”, the target mRNA inhibition is 59%.

For TACTTAGACATTACTA (sugars k3 d10 k3, PS), the target mRNA inhibition (SK-MEL-28, 4 µM) was 39%.

With “ACGTGTGCTTGCCAAG (sugars k2 d9 e3 k2, PS)”, the target mRNA inhibition (MM.1R, 1 µM) is 44% and 43%.

As for “TGTGTATTACTCTTAG (sugars kddddddddddkekek, PS)”, the target mRNA inhibition (MM.1R, 1 µM) was 58% and 56%.

For the sequence AAGCACTGGCATTGAG (sugars k3 d10 k3, PS), the target mRNA inhibition (SK-MEL-28, 4 µM) was 42%.

With ACCGATGCTTCAAGAC (sugars k3 d10 k3, PS), under “MM.1R, 1 µM”, the target mRNA inhibition was 31% and 56%.

For CAAAAGTGCCACAACT (sugars k3 d10 k3, PS), the target mRNA inhibition (SK-MEL-28, 4 µM) was found to be 10%.

Take GGCTCATGGACATCTG (sugars k3 d10 k3, PS): the target mRNA inhibition (SK-MEL-28, 4 µM) stood at 36%.

As to TGAGATAAGAAGCACT (sugars k3 d10 k3, PS), the target mRNA inhibition (SK-MEL-28, 4 µM) was found to be 20%.

Take “ACCTCAGTTTGTGAAG (sugars kkkdddddddddkeke, PS)”: for the setting “MM.1R, 1 µM”, the target mRNA inhibition was 8%.

Turning to CAAGACCTAATCTACA (sugars k3 d10 k3, PS), for the setting “SK-MEL-28, 4 µM”, the target mRNA inhibition was 12%.

With GTTGTCTGGCTAGCAG (sugars k4 d8 k4, PS), the target mRNA inhibition (SK-MEL-28, 0.185 µM) was 6% and 4%; the target mRNA inhibition (SK-MEL-28, 4 µM) was 52%; the target mRNA inhibition (SK-MEL-28, 5 µM) was 42% and 44% and 53%; the target mRNA inhibition (SK-MEL-28, 15 µM) was 62% and 65% and 83%.

On to GGATGCCACCATCCCA (sugars k3 d10 k3, PS), for which the target mRNA inhibition (SK-MEL-28, 4 µM) is -5%.

On to GTCCAGGTTGCTGGCG (sugars k3 d10 k3, PS), for which, for the setting “SK-MEL-28, 4 µM”, the target mRNA inhibition is 53%.

As for TCTCCCACACCAGCCC (sugars k3 d10 k3, PS), for the setting “SK-MEL-28, 4 µM”, the target mRNA inhibition came to 6%.

With “GAAGTTTACACTGGAT (sugars k2 d9 e3 k2, PS)”, for the setting “MM.1R, 1 µM”, the target mRNA inhibition stood at 28%.

Consider GGAAAGAGGCACCCTC (sugars k3 d10 k3, PS), for which the target mRNA inhibition (SK-MEL-28, 4 µM) amounted to 28%.

With GCCAAGTTGAAGACAC (sugars k3 d10 k3, PS), the target mRNA inhibition (SK-MEL-28, 4 µM) is 57%.

For the sequence CTGGAACATTGTTGGA (sugars k3 d10 k3, PS), the target mRNA inhibition (SK-MEL-28, 4 µM) was determined as 46%.

For AGCCAGAGCAGTAAAC (sugars k3 d10 k3, PS), under “SK-MEL-28, 4 µM”, the target mRNA inhibition was 15%.

Take GAGCCAACTTATAGCA (sugars k3 d10 k3, PS): the target mRNA inhibition (MM.1R, 1 µM) is 11% and 8%.

On to CTGAGACTACACCTAC (sugars k3 d10 k3, PS), for which, where the note is “MM.1R, 1 µM”, the target mRNA inhibition is -40%.
